Laboratory results: ChEMBL document CHEMBL1140500, “Arene cis-dihydrodiols: useful precursors for the preparation of analogues of the anti-tumour agent, 2-crotonyloxymethyl-(4R,5R,6R)-4,5,6-trihydroxycyclohex-2-enone (COTC)” (Bioorg Med Chem Lett, 2007)

Legend:
A549 = test: Cytotoxicity against human A549 cells assessed as surviving cells after 4 days by MTT assay; type: cell-based
NCI-H460 = test: Cytotoxicity against human H460 cells assessed as surviving cells after 4 days by MTT assay; type: cell-based

Structure (SMILES) | IC50 (A549; a549) [µM] | IC50 (NCI-H460; nci-h460) [µM] | IC50 (A549; Homo sapiens, A549, 96 h) [µM] | IC50 (NCI-H460; Homo sapiens, NCI-H460, 96 h) [µM]
C/C=C/C(=O)OCC1=CC(O)C(O)C(O)C1=O (racemic) | 184 | 160 |  | 
C/C=C/C(=O)OCC1=CC(O)C2OC(C)(OC)C(C)(OC)OC2C1=O (racemic) | 30 | 18 |  | 
C/C=C/C(=O)OCC1=CC(O)C2OC(C)(OC)C(C)(OC)OC2C1=O (single isomer, unassigned; (+)) |  |  | 60 | 36
C/C=C/C(=O)OCC1=CC(O)C(O)C(O)C1=O (single isomer, unassigned; (-)) |  |  | 170 | 158
